Measurements: patent US20220133717A1, “RABEXIMOD IN THE TREATMENT OF RHEUMATOID ARTHRITIS” (CYXONE AB, priority 2020, published 2022)
Where two headings read alike, the source gives them in different places.

Legend:
[1] = test system: patients with moderate or severe active rheumatoid arthritis; experiment: Phase II clinical trial: safety (AEs, physical examinations, vital signs, ECG)
From the text: The Phase II study was a randomised, parallel-group, double-blind, dose-ranging, placebo-controlled study of Rabeximod in patients with moderate or severe active RA with an inadequate response to methotrexate.
Safety assessments included AEs, vital signs, weight, physical examination, 12-lead ECG and safety laboratory tests (serum chemistry, haematology and urinalysis).
Safety measurements for this study included AEs, clinical laboratory tests, physical examinations, vital signs and resting 12-lead ECGs.

[2] = Phase II clinical trial: pharmacokinetics of plasma Rabeximod (PK subgroup); format: in vivo, human; settings: for half-life / Tmax / AUC(0-t) / AUC / Cmax: human, plasma, oral
From the text: A total of 9 visits occurred over the course of the study (screening, randomisation [Day 0, baseline]. Day 1, and Weeks 2, 4, 6, 8, 12 and 16). The Day 1 visit was included for a subgroup of 36 patients (PK/PD subgroup) who were selected at specified study centres to also participate in the PK/PD aspect of the study. Individual patient duration in the study was approximately 126 days (a 14 day screening period, an 84 day treatment period [12 weeks], and a 28 day [4 week] follow-up period).
In addition to standard efficacy and safety assessments, it was planned that 40 patients in selected study centres would have blood draws at the beginning of the study (Day 1) and at the end of the study (Week 12) to assess the PK of Rabeximod. The actual number of patients who participated in the PK aspect of the study was 36. The ACR20, ACR50 and ACR70 are assessments of RA improvement. The mHAQ is a validated instrument used to assess patient satisfaction in activity of daily living. It was planned to use the Original DAS as the outcome measure, but this was replaced with DAS28 because it is used more frequently in therapeutic studies have been used in many RA studies.
[…] The study drug was to be taken at approximately the same time every morning, starting from Day 1. For the PK/PD subgroup, on the day when the PK/PD sampling was scheduled, study drug was to be taken after the first blood sampling. The study design of the treatment phase was double-blind. All study drug, including placebo, were identical in size, shape, colour and taste, thus allowing double-blind conditions to be maintained. All study personnel and patients remained blinded to the drug treatment assignments. Patients self-administered all doses of study drug end were instructed to return all residual, unused and empty packaging to the clinic at scheduled visits. If dosing compliance was not maintained at between 80% and 120% then the patient was to be withdrawn from the study. Patients in the PK/PD subgroup were to take study drug at the clinic on Day 1 and at Week 12. Compliance was monitored through drug accountability. The Investigator, or designee, maintained an inventory record of study drug received, dispensed, administered and returned to assure the Sponsor that study drug was not dispensed to any person who was not a patient under the terms and conditions set forth in the protocol. Clinically significant protocol deviations were identified based on criteria determined by the project leader to be clinically relevant. Deviations were reported on the CRFs. Additionally, upon completion of the study, certain deviations (e.g., visit window deviations) were identified through the use of SAS® programming.
The PK assessment of Rabeximod was performed in a subgroup of 36 patients during the study.
Concentration-time profiles for plasma Rabeximod following single (Day 1) and repeated administration (Week 12) of Rabeximod were determined.

[3] = test system: healthy male volunteers; experiment: Phase 1 clinical trial: safety and tolerability of single and multiple oral rising doses; format: in vivo, human
From the text: The Phase 1 study assessed the safety, tolerability, pharmacokinetics and pharmacodynamics of single and multiple oral rising doses of Rabeximod (in a capsule formulation) in healthy male volunteers. The study also included an open-label, randomised, two-period crossover part that was designed to investigate the effect of food on the pharmacokinetics of Rabeximod. In total, 87 healthy male subjects were enrolled into the study.

In the case of Cc1cc2nc3c4cc(Cl)ccc4n(CC(=O)NCCN(C)C)c3nc2cc1C [Rabeximod, 9-Chloro-2,3-dimethyl-6-(N,N-dimethylaminoethylamino-2-oxoethyl)-6H-indolo-[2,3-b]quinoxaline], the “proportion of patients experiencing study drug-related AEs” value ([1]; 37.5 mg group (32 patients)) was 58.2%, the “deaths during the study” value ([1]; 12 weeks treatment, 4 weeks follow-up) was “No deaths” and the “proportion of patients experiencing study drug-related AEs” value ([1]; Rabeximod groups pooled (placebo 11.1%)) was 34.5%. For the same compound, the “majority of changes in physical examinations” value ([1]; all occurred in the Rabeximod group, most reported as AEs) was “skin abnormalities”, the “relation of skin abnormality events to dose” value ([1]; majority in 37.5 mg group, then 15 mg, then 6.25 mg) was “dose response” and the tolerability ([1]; once daily at 6.25, 15 and 37.5 mg, RA patients taking methotrexate) was “well-tolerated”. For the same compound, the “changes in vital signs and 12-lead ECGs” value ([1]; over the course of the study) was “no notable changes”, the “impact of methotrexate on the kinetics of Rabeximod” value ([2]; co-administered stable dose of methotrexate) was “does not appear to have an impact” and the “increase of geometric mean AUC0-τ, AUC0-t and Cmax with dose” value ([2]; dose range 6.25 to 37.5 mg, with stable dose of methotrexate) was “approximately dose-proportional”. It also gave a half-life ([2]; 6.25 mg, Week 12, 6.25 mg, read-out: geometric mean apparent terminal half-life (t1/2) (converted)) of 81.5 h, a half-life ([2]; 15 mg, Week 12, 15 mg, read-out: geometric mean apparent terminal half-life (t1/2) (converted)) of 77.1 h and a half-life ([2]; 37.5 mg, Week 12, 37.5 mg, read-out: geometric mean apparent terminal half-life (t1/2) (converted)) of 111 h. The Tmax ([2]; 37.5 mg, single administration at 6.25, 15 and 37.5 mg, across all dose levels, with methotrexate, read-out: Tmax (median estimates)) was 5 to 8 h, the Tmax ([2]; repeated administration, Week 12, read-out: Tmax (median estimates)) was 2 to 4 h and the AUC(0-t) ([2]; po, 6.25 mg, Week 12, 6.25 mg once daily, RA patients, with methotrexate, read-out: AUC0-t, Median) was 2810 ng·h/mL. It also gave a half-life ([2]; po, 6.25 mg, Week 12, 6.25 mg once daily, RA patients, with methotrexate, read-out: T1/2 (apparent terminal half-life), Geometric mean (converted)) of 81.5 h, a half-life ([2]; po, 6.25 mg, Week 12, 6.25 mg once daily, RA patients, with methotrexate, read-out: T1/2 (apparent terminal half-life), Median (converted)) of 86.6 h and an AUC ([2]; po, 6.35 mg, Day 1 (equivalent to AUC0-t), 6.35 mg, RA patients, with methotrexate, read-out: AUC0-τ, Geometric mean) of 112 ng·h/mL. It also gave an AUC ([2]; po, 6.35 mg, Day 1 (equivalent to AUC0-t), 6.35 mg, RA patients, with methotrexate, read-out: AUC0-τ, Median) of 107 ng·h/mL, a Cmax ([2]; po, 6.35 mg, Day 1, 6.35 mg, RA patients, with methotrexate, read-out: Cmax, Geometric mean) of 7.92 ng/mL and a Cmax ([2]; po, 6.35 mg, Day 1, 6.35 mg, RA patients, with methotrexate, read-out: Cmax, Median) of 7.05 ng/mL. It also gave a Tmax ([2]; po, 6.35 mg, Day 1, 6.35 mg, RA patients, with methotrexate, read-out: Tmax, Median) of 8.03 h, an AUC(0-t) ([2]; po, 6.35 mg, Week 12, 6.35 mg once daily, RA patients, with methotrexate, read-out: AUC0-t, Geometric mean) of 2530 ng·h/mL and an AUC ([2]; po, 6.35 mg, Week 12, 6.35 mg once daily, RA patients, with methotrexate, read-out: AUC0-τ, Geometric mean) of 587 ng·h/mL. For the same compound, the AUC ([2]; po, 6.35 mg, Week 12, 6.35 mg once daily, RA patients, with methotrexate, read-out: AUC0-τ, Median) was 710 ng·h/mL, the Cmax ([2]; po, 6.35 mg, Week 12, 6.35 mg once daily, RA patients, with methotrexate, read-out: Cmax, Geometric mean) was 31 ng/mL and the Cmax ([2]; po, 6.35 mg, Week 12, 6.35 mg once daily, RA patients, with methotrexate, read-out: Cmax, Median) was 37.5 ng/mL. It also gave a Tmax ([2]; po, 6.35 mg, Week 12, 6.35 mg once daily, RA patients, with methotrexate, read-out: Tmax, Median) of 2.17 h, an AUC ([2]; po, 15 mg, Day 1 (equivalent to AUC0-t), 15 mg, RA patients, with methotrexate, read-out: AUC0-τ, Geometric mean) of 282 ng·h/mL and an AUC ([2]; po, 15 mg, Day 1 (equivalent to AUC0-t), 15 mg, RA patients, with methotrexate, read-out: AUC0-τ, Median) of 254 ng·h/mL. The Cmax ([2]; po, 15 mg, Day 1, 15 mg, RA patients, with methotrexate, read-out: Cmax, Geometric mean) was 18.3 ng/mL, the Cmax ([2]; po, 15 mg, Day 1, 15 mg, RA patients, with methotrexate, read-out: Cmax, Median) was 16 ng/mL and the Tmax ([2]; po, 15 mg, Day 1, 15 mg, RA patients, with methotrexate, read-out: Tmax, Median) was 6.04 h. For the same compound, the AUC(0-t) ([2]; po, 15 mg, Week 12, 15 mg once daily, RA patients, with methotrexate, read-out: AUC0-t, Geometric mean) was 4970 ng·h/mL, the AUC(0-t) ([2]; po, 15 mg, Week 12, 15 mg once daily, RA patients, with methotrexate, read-out: AUC0-t, Median) was 5590 ng·h/mL and the AUC ([2]; po, 15 mg, Week 12, 15 mg once daily, RA patients, with methotrexate, read-out: AUC0-τ, Geometric mean) was 1530 ng·h/mL. For the same compound, the AUC ([2]; po, 15 mg, Week 12, 15 mg once daily, RA patients, with methotrexate, read-out: AUC0-τ, Median) was 1480 ng·h/mL, the Cmax ([2]; po, 15 mg, Week 12, 15 mg once daily, RA patients, with methotrexate, read-out: Cmax, Geometric mean) was 79.7 ng/mL and the Cmax ([2]; po, 15 mg, Week 12, 15 mg once daily, RA patients, with methotrexate, read-out: Cmax, Median) was 91.6 ng/mL. It also gave a half-life ([2]; po, 15 mg, Week 12, 15 mg once daily, RA patients, with methotrexate, read-out: T1/2 (apparent terminal half-life), Geometric mean (converted)) of 77.1 h, a half-life ([2]; po, 15 mg, Week 12, 15 mg once daily, RA patients, with methotrexate, read-out: T1/2 (apparent terminal half-life), Median (converted)) of 77.6 h and a Tmax ([2]; po, 15 mg, Week 12, 15 mg once daily, RA patients, with methotrexate, read-out: Tmax, Median) of 4 h. It also gave an AUC ([2]; po, 37.5 mg, Day 1 (equivalent to AUC0-t), 37.5 mg, RA patients, with methotrexate, read-out: AUC0-τ, Geometric mean) of 689 ng·h/mL, an AUC ([2]; po, 37.5 mg, Day 1 (equivalent to AUC0-t), 37.5 mg, RA patients, with methotrexate, read-out: AUC0-τ, Median) of 697 ng·h/mL and a Cmax ([2]; po, 37.5 mg, Day 1, 37.5 mg, RA patients, with methotrexate, read-out: Cmax, Geometric mean) of 41.7 ng/mL. The Cmax ([2]; po, 37.5 mg, Day 1, 37.5 mg, RA patients, with methotrexate, read-out: Cmax, Median) was 41.8 ng/mL, the Tmax ([2]; po, 37.5 mg, Day 1, 37.5 mg, RA patients, with methotrexate, read-out: Tmax, Median) was 5.03 h and the AUC(0-t) ([2]; po, 37.5 mg, Week 12, 37.5 mg once daily, RA patients, with methotrexate, read-out: AUC0-t, Geometric mean) was 15900 ng·h/mL. It also gave an AUC(0-t) ([2]; po, 37.5 mg, Week 12, 37.5 mg once daily, RA patients, with methotrexate, read-out: AUC0-t, Median) of 17500 ng·h/mL, an AUC ([2]; po, 37.5 mg, Week 12, 37.5 mg once daily, RA patients, with methotrexate, read-out: AUC0-τ, Geometric mean) of 4040 ng·h/mL and an AUC ([2]; po, 37.5 mg, Week 12, 37.5 mg once daily, RA patients, with methotrexate, read-out: AUC0-τ, Median) of 4540 ng·h/mL. The Cmax ([2]; po, 37.5 mg, Week 12, 37.5 mg once daily, RA patients, with methotrexate, read-out: Cmax, Geometric mean) was 218 ng/mL, the Cmax ([2]; po, 37.5 mg, Week 12, 37.5 mg once daily, RA patients, with methotrexate, read-out: Cmax, Median) was 238 ng/mL and the half-life ([2]; po, 37.5 mg, Week 12, 37.5 mg once daily, RA patients, with methotrexate, read-out: T1/2 (apparent terminal half-life), Geometric mean (converted)) was 111 h. For the same compound, the half-life ([2]; po, 37.5 mg, Week 12, 37.5 mg once daily, RA patients, with methotrexate, read-out: T1/2 (apparent terminal half-life), Median (converted)) was 107 h, the Tmax ([2]; po, 37.5 mg, Week 12, 37.5 mg once daily, RA patients, with methotrexate, read-out: Tmax, Median) was 3.99 h and the tolerability ([3]; multiple dose of 600 mg loading followed by 100 mg) was “less well tolerated due to phototoxicity reactions”. The tolerability ([3]; multiple oral doses up to a 200 mg loading dose followed by 50 mg maintenance dose) was “well tolerated”, the tolerability ([3]; single dose of 600 mg) was “less well tolerated due to phototoxicity reactions” and the tolerability ([3]; single oral doses up to 400 mg) was “well tolerated”.
